Test results published in patent US20250268903A1, “RXFP1 AGONISTS” (BRISTOL-MYERS SQUIBB COMPANY, priority 2021, published 2025).
pEC50: −log10 of the molar value.

Test system: not given
Assay: not given
Conditions: intravenous (IV) formulation; cited from earlier work

Compound	first-phase pharmacokinetic half-life
Serelaxin: "an intravenous (IV) formulation of the recombinant human relaxin peptide with a relatively short first-phase pharmacokinetic half-life of 0.09 hours"	5.4 min

Biological target: T1, human RXFP1 (Homo sapiens, UniProt Q9HBX9)
T1 construct: expressed in transfected cells
T1 sequence (Q9HBX9 1-757): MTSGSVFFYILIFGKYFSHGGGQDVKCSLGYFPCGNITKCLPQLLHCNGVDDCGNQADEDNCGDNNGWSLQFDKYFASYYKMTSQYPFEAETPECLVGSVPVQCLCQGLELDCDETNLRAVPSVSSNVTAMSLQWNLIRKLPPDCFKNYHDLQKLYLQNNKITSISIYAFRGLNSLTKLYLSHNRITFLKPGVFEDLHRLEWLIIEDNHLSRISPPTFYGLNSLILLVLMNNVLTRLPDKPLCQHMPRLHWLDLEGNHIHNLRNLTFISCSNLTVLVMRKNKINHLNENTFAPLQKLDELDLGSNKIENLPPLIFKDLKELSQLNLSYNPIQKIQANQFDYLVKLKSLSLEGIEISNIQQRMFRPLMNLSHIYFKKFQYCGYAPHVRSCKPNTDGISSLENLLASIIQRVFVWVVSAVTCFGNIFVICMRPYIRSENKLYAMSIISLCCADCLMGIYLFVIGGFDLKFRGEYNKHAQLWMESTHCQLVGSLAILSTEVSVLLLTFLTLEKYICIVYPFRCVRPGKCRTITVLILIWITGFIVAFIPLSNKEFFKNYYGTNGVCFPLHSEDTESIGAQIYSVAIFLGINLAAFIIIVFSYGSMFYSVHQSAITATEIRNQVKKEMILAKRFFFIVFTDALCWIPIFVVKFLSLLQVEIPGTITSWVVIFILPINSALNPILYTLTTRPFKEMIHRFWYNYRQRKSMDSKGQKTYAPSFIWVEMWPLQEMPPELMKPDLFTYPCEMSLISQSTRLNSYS
Assay: hRXFP1 HEK293 cAMP assay (HTRF)
Assay type: cell-based
Conditions: HEK293 cells stably expressing human RXFP1, 30 min at room temperature
How it was run: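 HEK293 cells stably expressing human RXFP1 (1500 cells/well) in HBSS/20 mM HEPES/0.05% BSA/0.5 mM IBMX. Compounds were tested at 0.010 nM–50 μM final (2% DMSO) for 30 min at room temperature. cAMP was measured by HTRF and values derived by 4-parameter logistic fit.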

Compound	pEC50
COc1c(F)cc(C(=O)NCC2(S(C)(=O)=O)CC2)cc1C(=O)N[C@H]1[C@@H](C(=O)N[C@H](C)C2(C)CC2)[C@H]2CC[C@@H]1/C2=C\c1cnc(C(F)(F)F)s1 [Example 373, 5-fluoro-N1-[(1-methanesulfonyl-cyclopropyl)methyl]-4-methoxy-N3-[(1R,2R,3S,4R,7Z)-3-{[(1R)-1-(1-methylcyclopropyl)ethyl]carbamoyl}-7-{[2-(trifluoromethyl)-1,3-thiazol-5-yl]methylidene}bicyclo[2.2.1]heptan-2-yl]benzene-1,3-dicarboxamide]	8.44
COc1c(F)cc(C(=O)NCC2(S(C)(=O)=O)CC2)cc1C(=O)N[C@H]1[C@@H](C(=O)Nc2ccc(F)c(C(F)(F)F)c2)[C@H]2CC[C@@H]1/C2=C\C1CC(F)(F)C1 [Example 374, N3-[(1R,2R,3S,4R,7Z)-7-[(3,3-difluorocyclobutyl)methylidene]-3-{[4-fluoro-3-(trifluoromethyl)phenyl]carbamoyl}bicyclo[2.2.1]heptan-2-yl]-5-fluoro-N1-[(1-methanesulfonyl-cyclopropyl)methyl]-4-methoxybenzene-1,3-dicarboxamide]	8.16
COc1cc(F)c(O[C@H]2CC[C@](C)(C(=O)O)CC2)cc1C(=O)N[C@@H]1C2CCC(/C2=C/C2CC2)[C@@H]1C(=O)Nc1ccc(F)c(C(F)(F)F)c1 (stereo partly drawn) [Example 375, (1R,4r)-4-(5-(((1R,2R,3S,4R,Z)-7-(cyclopropyl-methylene)-3-((4-fluoro-3-(trifluoromethyl)phenyl)carbamoyl)bicyclo[2.2.1]heptan-2-yl)carbamoyl)-2-fluoro-4-methoxyphenoxy)-1-methylcyclohexane-1-carboxylic acid]	8.89
COc1cc(F)c(O[C@H]2CC[C@H](C(=O)O)CC2)cc1C(=O)N[C@@H]1C2CCC(/C2=C/C2CC2)[C@@H]1C(=O)Nc1ccc(F)c(C(F)(F)F)c1 (stereo partly drawn) [Example 376, (1R,4r)-4-(5-(((1R,2R,3S,4R,Z)-7-(cyclopropyl-methylene)-3-((4-fluoro-3-(trifluoromethyl)phenyl)carbamoyl)bicyclo[2.2.1]heptan-2-yl)carbamoyl)-2-fluoro-4-methoxyphenoxy) cyclohexane-1-carboxylic acid]	6.92
COc1cc(F)c(O[C@H]2CC[C@](C)(C(=O)O)CC2)cc1C(=O)N[C@H]1[C@@H](C(=O)NCC2(C)CCC2)[C@H]2CC[C@@H]1/C2=C\C1CC1 [Example 377, (1R,4r)-4-(5-(((1R,2R,3S,4R,Z)-7-(cyclopropyl-methylene)-3-(((1-methylcyclobutyl)methyl)carbamoyl)bicyclo[2.2.1]heptan-2-yl)carbamoyl)-2-fluoro-4-methoxyphenoxy)-1-methylcyclohexane-1-carboxylic acid]	7.23
(1R,4R,7Z)-7- (cyclopentyl- methylidene)- N-[4-fluoro-3- (trifluoromethyl) phenyl]-3-[5-(3- hydroxy-3- methylbutyl)-2- methoxybenzamido] bicyclo[2.2.1] heptane-2- carboxamide [Example 268]	7.53
(1R,4R,7Z)-7- (cyclopentyl- methylidene)- N-[4-fluoro- 3-(trifluoromethyl) phenyl]-3-[5-(3- hydroxy-3- methylbutyl)-2- methoxybenzamido] bicyclo[2.2.1]heptane- 2-carboxamide [Example 260]	6.49
(1R,4R,7Z)-7-(2- cyclobutylethylidene)- N-[4-fluoro-3- (trifluoromethyl) phenyl]-3-[5-(3- hydroxy-3- methylbutyl)-2- methoxybenzamido] bicyclo[2.2.1] heptane- 2-carboxamide [Example 265]	7.18
(1R,4R,7Z)-7-(2- cyclobutylethylidene)- N-[4-fluoro-3- (trifluoromethyl) phenyl]-3-[5-(3- hydroxy-3- methylbutyl)-2- methoxybenzamido] bicyclo[2.2.1]heptane- 2-carboxamide [Example 262]	6.71
(1R,4R,7Z)-7-(2- cyclobutylethylidene)- N-[4-fluoro-3- (trifluoromethyl) phenyl]-3-[5-(3- hydroxypropyl)-2- methoxybenzamido] bicyclo[2.2.1]heptane- 2-carboxamide [Example 261]	6.83
(1R,4R,7Z)-N-14- fluoro-3- (trifluoromethyl) phenyl]-3-[5-(3- hydroxy-3- methylbutyl)-2- methoxybenzamido 1-7-[(oxan-3- yl)methylidene] bicyclo[2.2.1] heptane- 2-carboxamide [Example 266]	6.73
(1R,4R,7Z)-N-[4- fluoro-3- (trifluoromethyl) phenyl]-3-[5-(3- hydroxy-3- methylbutyl)-2- methoxybenzamido 1-7-[(oxolan-3- yl)methylidene] bicyclo[2.2.1] heptane- 2-carboxamide [Example 267]	6.61
(1R,4R,7Z)-N-[4- fluoro-3- (trifluoromethyl) phenyl]-3-[5-(3- hydroxypropyl)-2- methoxybenzamido]- 7-[(oxan-3- yl)methylidene] bicyclo[2.2.1]heptane- 2-carboxamide [Example 263]	6.50
(1R,4R,7Z)-N-[4- fluoro-3- (trifluoromethyl) phenyl]-3-[5-(3- hydroxypropyl)-2- methoxybenzamido]- 7-[(oxolan-3- yl)methylidene] bicyclo[2.2.1] heptane- 2-carboxamide [Example 264]	6.34
(2S,3R,7Z)-7- butylidene-N-[4- fluoro-3- (trifluoromethyl)phe- nyl]-3-[5-(3- hydroxy-3- methylbutyl)-2- methoxybenzamido] bicyclo[2.2.1]heptane- 2-carboxamide [Example 88]	7.55
(7Z)-7-(4,4- dimethylpentylidene)- N-[4-fluoro-3- (trifluoromethyl)phe- nyl]-3-[5-(3- hydroxypropyl)-2- methoxybenzamido] bicyclo[2.2.1]heptane- 2-carboxamide [Example 164]	7.17
